Assay results reported in publication PMC9266550, “The 2-hydroxy-3-(4-aryl-1-piperazinyl)propyl Phthalimide Derivatives as Prodrugs—Spectroscopic and Theoretical Binding Studies with Plasma Proteins” (International Journal of Molecular Sciences, 2022).

What was measured:
[1] = biological target: T1, bovine serum albumin (BSA) (Bos taurus, UniProt P02769); test: intrinsic fluorescence quenching, excitation […] nm; type: binding; conditions: 297 K, phosphate buffer pH 7.5, no site marker; double-log
T1 construct: gene ALB; native plasma protein, commercial (Sigma-Aldrich), mature form
T1 sequence (P02769 25-607): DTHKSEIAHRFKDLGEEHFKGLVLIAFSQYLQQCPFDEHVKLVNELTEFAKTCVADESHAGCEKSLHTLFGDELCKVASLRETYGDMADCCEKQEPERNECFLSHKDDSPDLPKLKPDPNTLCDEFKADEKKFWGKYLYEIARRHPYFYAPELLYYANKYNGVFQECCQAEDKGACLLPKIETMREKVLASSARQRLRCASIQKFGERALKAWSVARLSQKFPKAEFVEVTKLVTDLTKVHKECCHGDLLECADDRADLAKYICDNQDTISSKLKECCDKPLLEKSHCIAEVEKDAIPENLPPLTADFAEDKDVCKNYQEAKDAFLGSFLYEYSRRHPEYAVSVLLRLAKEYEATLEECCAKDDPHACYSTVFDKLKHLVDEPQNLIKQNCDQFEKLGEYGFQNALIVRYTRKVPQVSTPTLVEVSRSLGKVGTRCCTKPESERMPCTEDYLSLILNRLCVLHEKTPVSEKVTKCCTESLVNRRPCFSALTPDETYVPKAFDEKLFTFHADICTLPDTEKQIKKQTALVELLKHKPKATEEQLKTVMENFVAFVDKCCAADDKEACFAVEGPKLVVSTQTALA

[2] = biological target: T2, bovine α1-acid glycoprotein (AAG), orosomucoid (Bos taurus, UniProt Q3SZR3); test: intrinsic fluorescence quenching, excitation […] nm; type: binding; conditions: 297 K, phosphate buffer pH 7.5; double-log
T2 construct: gene ORM1; native plasma glycoprotein, commercial (Sigma-Aldrich), mature form
T2 sequence (Q3SZR3 19-202): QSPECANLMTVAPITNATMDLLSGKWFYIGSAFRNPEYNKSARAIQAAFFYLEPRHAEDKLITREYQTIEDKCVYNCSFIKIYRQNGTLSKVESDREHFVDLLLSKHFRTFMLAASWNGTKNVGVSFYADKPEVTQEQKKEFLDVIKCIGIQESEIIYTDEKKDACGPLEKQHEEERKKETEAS

Row | SMILES | Binding / Kb × 10^5 [dm^3.mol^-1] [1] | Binding / Kb × 10^3 [dm^3.mol^-1] [2]
1 | O=C1c2ccccc2C(=O)N1CC(O)CN1CCN(C(c2ccccc2)c2ccccc2)CC1 (centres unmarked) [F4] | 1.99 × 10^5 dm^3·mol^−1 | 2.75 × 10^3 dm^3·mol^−1
2 | O=C1c2ccccc2C(=O)N1CC(O)CN1CCN(c2cccc(C(F)(F)F)c2)CC1 (centres unmarked) [F3] | 1.75 × 10^5 dm^3·mol^−1 | 4.17 × 10^3 dm^3·mol^−1
3 | O=C1c2ccccc2C(=O)N1CC(O)CN1CCN(c2ccccc2)CC1 (centres unmarked) [F1] | 2.13 × 10^5 dm^3·mol^−1 | 2.12 × 10^3 dm^3·mol^−1
4 | COc1ccccc1N1CCN(CC(O)CN2C(=O)c3ccccc3C2=O)CC1 (centres unmarked) [F2] | 0.55 × 10^5 dm^3·mol^−1 | 1.21 × 10^3 dm^3·mol^−1
